What was measured:
[1] = system: Staphylococcus aureus 6751; test: Bacterial growth rate by optical density, 96 well plate (Tests 6(d), 6(e)); assay type: cell-based
Protocol: (§1) Bacteria were seeded into nutrient broth (NB) and grown over night at 37° C. The culture was then counted and normalised to give a final cell concentration of 1.8×10^7 cells well^−1 into the wells of a 96 well plate in fresh nutrient broth. The optical density of each well was monitored every 15 minutes as a measure of the growth rate of each bacterial species. Growth curves were generated for each species and the maximal rate of growth (logarithmic phase) was measured. Cells were treated to a range of experimental conditions in which the growth rate of cells was related to a control of untreated cells. The results were expressed as a percentage of the growth rate of the control cells.
(§2) (i) At a fixed concentration of hypoxanthine (100 μM) a range of purified XO protein concentrations were added at time 0 minutes. The optical density was followed and the growth rate calculated.
(§3) (ii) The growth rate was also measured in relation to the concentration of hypoxanthine, using 30 μg of XO with cells seeded as described above.

Lactobacillus casei 6375 = test: as above; assay type: cell-based; conditions: highest concentration
Protocol: as §1, §2, §3

S. enteritidis [2] = test: Peroxynitrite effect on cell viability, colony count (Test 6(a)); assay type: cell-based
Protocol: Cells cultured as described above were diluted to suitable working concentrations (10^4-10^5 Cells Ml^−1) in sterile phosphate buffered saline (PBS). ONOO^− at a range of concentrations from 100 μM to 0.01 μM was added as a bolus dose to cells and incubated at room temperature for ten minutes. Aliquots were taken from the cell cultures and plated on to nutrient agar and incubated in a warm room at 37° C. overnight. Viable cells formed colonies on the agar and were counted. The number of colonies formed was related to an untreated control and a graph of the results is shown in FIG. 1, which illustrates the effect of ONOO^− on cell viability.

Escherichia coli NCTC 86 = test: as above; assay type: cell-based; conditions: E. coli; 100 μM to 0.01 μM; FIG. 1
Protocol: (§4) To obtain cells used in this test, the infective bacterial strain Escherichia coli NCTC 86 (E.coli) was cultured on nutrient agar at 37° until colony formation occurred, usually overnight. This stock culture was used for subsequent experiments including sub-culturing in nutrient broth and plated onto agar weekly. Experimental cultures of E.coli were set up overnight in nutrient broth from single colonies on an agar plate. Cells were harvested and counted using a standard curve of known absorbance at 470 nm against viable cell count. Peroxynitrite was generated by the method of Crow et al BIOCHEM. 34 pages 3544 to 3552 (1995). In accordance with that method, a mixture of sodium nitrite and hydrogen peroxide was reacted under acid conditions then immediately quenched by the addition of sodium hydroxide. The concentration of ONOO^− formed was measured using an absorption coefficient of 1670 M^−1 cm^−1 in a spectrophotometer at a wavelength of 303 nm. Solutions of different concentrations for use in (a) below were obtained by dilution of the product solution using PBS.
Cells cultured as described above were diluted to suitable working concentrations (10^4-10^5 Cells Ml^−1) in sterile phosphate buffered saline (PBS). […] Viable cells formed colonies on the agar and were counted. […]

E. coli = test: Effect of peroxynitrite scavenger on bacterial growth, growth curves by absorbance (Test 6(c)); assay type: cell-based
Protocol: E. coli were seeded into nutrient broth at 2.10^7 cell ml^−1 and incubated at 37° C. under atmospheric air conditions (that is, 21% oxygen saturation). Four separate test samples of volume 1 ml were prepared by addition at 1 hour of incubation as follows:
1 Peroxynitrite at concentration 100 μM.
2 Peroxynitrite at 100 μM and quercetin (peroxynitrite scavenger) at 100 μμM.
3 Xanthine oxidase (53.2 μg) and xanthine at 100 μM.
4 Xanthine oxidase (53.2 μg) and NADH at 100 μM.
Corresponding controls were also prepared, and the growth curves generated over time determined by monitoring absorbance.

Straphylococcu aureus = test: Incubation of Gram positive bacteria with SIN-1, growth; assay type: cell-based
S. enteritidis [3] = test: Effect of xanthine oxidase derived species on cell viability at a range of oxygen concentrations (Test 6(b)); assay type: cell-based; conditions: XO, NADH, NaNO2 system
Protocol: Aliquots were taken and incubated with a reaction system consisting of bovine Xanthine oxidase (XO) (53.2 μgml^−1), nicotinamide adenine dinucleotide in reduced form (NADH) (300 μM), sodium nitrite, (NaNO2) 1 mM and oxygen at a range of concentrations. […] This reaction was followed at 37° C. for 30 min with mixing before an aliquot was taken and plated onto agar and incubated in a warm room at 37° C. Viable cells formed colonies on the agar and were counted. Viable cell counts were performed in triplicate and the results expressed as a percentage viable count in each case related to a non enzyme control of the same oxygen concentration. […] The range of oxygen tensions used covers those in which XO has previously been considered to be active, namely superoxide generation (21% O2 saturation) and nitric oxide production (0% O2 saturation).

E.coli = test: as above; assay type: cell-based, Escherichia coli; conditions: XO, NADH, NaNO2 system
Protocol: as §4, with “Solutions of different concentrations for use in (a) below were obtained by dilution of the product solution using PBS.” left out
E.coli were cultured as described above. […] Desired oxygen concentrations were generated by delivery of a mixture of oxygen and nitrogen in appropriate proportions and determined using a Clark type O2 electrode. […] Viable cells formed colonies on the agar and were counted. Viable cell counts were performed in triplicate and the results expressed as a percentage viable count in each case related to a non enzyme control of the same oxygen concentration. […]

[4] = Nitric oxide release from pure bovine xanthine oxidase with NADH and nitrite under hypoxic conditions (ozone chemiluminescence, Tests 1-3); assay type: biochemical
Protocol: The production of nitric oxide in the following tests and examples was analysed using an ozone chemiluminescence assay in a continuous flow apparatus (Sievers NOA 280) that allows the real time analysis of NO production. The apparatus was modified to allow a constant stream of nitrogen to flow into the reaction chamber. Chemiluminescence data were collected by a data acquisition system; the mean NO produced in parts per billion (ppb) was calculated from readings taken every second and shown as NO ppb/s. Progress curves, of molar production of NO against time, were calculated by taking into account the gas flow and successively integrating the ppb/s curves. […]
(d) Samples of NO were taken from the reaction cell by a needle that was connected to a Sievers Nitric Oxide Analyser (NOA-280 ) and the results were recorded for analysis using a computer.
(e) At time (t) 0 minutes, the NOA-280 started the measurement of NO from the reaction cell. At t=1 minute, the contents of the “substrates” bijou were injected into the reaction cell using a 1 ml syringe and the background NO was measured.
(f) At t=5 minutes, the contents of the “milk” bijou were injected into the reaction cell using a 1 ml syringe and the release of NO was monitored for a further 20 minutes. […]

Molecule: OO [H2O2, hydrogen peroxide]
- growth inhibition in the presence of H2O2 ([1]; S. aureus, concentration ranges used): very limited

Molecule: O=c1[nH]c(=O)c2c[nH]nc2[nH]1 [Oxypurinol]
- effect on growth rate when added alone (Lactobacillus casei 6375): no effect on growth rate

Molecule: O=NOO [Peroxynitrite]
- effect on viability (S. enteritidis [2]): reduce viability
- effect on cell viability (viable count) (Escherichia coli NCTC 86): profound inhibitory effect
- killing (growth curves) (E. coli; sample (1): peroxynitrite 100 μM added at 1 hour, 21% oxygen saturation): strong killing

Molecule: N=c1c[n+](N2CCOCC2)[n-]o1 [SIN-1, 3-morpholinosydnonimine]
- growth on incubation with SIN-1 (Straphylococcu aureus): reduced growth in dependence on the amount of added SIN-1

Molecule: O=c1c(O)c(-c2ccc(O)c(O)c2)oc2cc(O)cc(O)c12 [quercetin]
- effect of scavenger on peroxynitrite killing (E. coli; sample (2): peroxynitrite 100 μM and quercetin 100 μμM): clear effect in reducing killing

Molecule: XOR: Bovine xanthine oxidase (XOR), Biozyme, Blaenavon, UK; 10.7 mg/ml, batch 104AX
- killing at oxygen concentrations of about 21% (S. enteritidis [3]): about 10%
- killing at oxygen concentrations of about 21% (E.coli): about 5%
- optimum pH for the production of NO from XOR [4]: ~5.5 pH
- growth inhibition by XO ([1]; hypoxanthine 100 μM, compared with Lactobacillus, FIG. 3): less marked growth inhibition
